The values that follow come from patent publication US20240067693A1, “POLYPEPTIDES AND USES THEREOF” (MEDIMMUNE LIMITED, priority 2020, published 2024).

One may read the half-life as the time needed for the level to fall by half in the phase considered. Read a low half-life as fast loss. As a reminder, the EC50 is the concentration at which the effect is half-maximal.

Numbered stars: 1 amine (or outer) side, 2 acyl side, 3 side chain; on linkers, the order of the positions; unused ones are H or OH. Bridge positions count the residues as written; N and C are the ends. Square brackets hold non-standard residues; d marks the D form. Side chains are listed from the residue outwards. Ends that are not written are not given here. Peptide text beside a SMILES is read from it. * marks the point of attachment. C18 diacid = O=C(O)CCCCCCCCCCCCCCCCC(=O)*; γGlu = O=C(O)[C@H](CCC(=O)[*:2])N[*:1]; Aib = CC(C)(N)C(=O)O

Series [1] is described as follows: Pharmacokinetic determination via IV and SC administration in Sprague Dawley rats. The settings on record: male, rat, plasma, 20 nmol/kg.
Protocol: PK studies were performed to determine the half-life (T1/2) of test peptides. T1/2 describes the time taken for the maximum plasma concentration (Cmax) of a test substance to halve its steady-state concentration when in circulation.
Male SD rats were purchased from Si Bei Fu Laboratory Animal Technology Co. Ltd (China). The animals were 6-8 weeks old with body weights of 200-300 g on the dosing date. The animals were housed in a 12-hour light/12-hour dark cycle environment and were fasted overnight before dosing. The body weight of the animals were recorded before dosing, 24 h and 48 h post dosing . Animals had free access to food and drinks, and the food consumption was quantified every day.
Test articles were administered at 20 nmol/kg. Blood samples were collected from each animal via Jugular vein.
The blood samples were transferred into eppendorf low binding tube containing K2 EDTA. Above 0.150 mL blood were collected at each time point. Blood samples were centrifuged at 4,000 g for 5 minutes at 4° C. to obtain plasma. The plasma samples were stored frozen at −75±15° C. until analysis.
Concentrations of the test articles in the plasma samples were analyzed using a LC-MS/MS method. Data acquisition was performed by LabSolution version 5.89 software (Shimadzu, Kyoto, Japan). Data statistics were performed using Excel 97-2003 software. The pharmacokinetic parameters of test articles were calculated using a non-compartmental approach with Phoenix™ VVinNonlin® 6.1.
The following pharmacokinetic parameters were calculated, whenever possible from the plasma concentration versus time data: • IV administration: T1/2, C0, AUClast, AUCinf, MRTinf, Cl, Vss, Number of Points for Regression. • SC administration: Tmax, Cmax, AUClast, AUCinf, MRTinf, F, Number of Points for Regression.
Series [2] addresses T1, rat calcitonin receptor (rat CTR) (Rattus norvegicus, UniProt P32214).
T1 construct: expressed in transfected cells
T1 sequence (P32214 25-516): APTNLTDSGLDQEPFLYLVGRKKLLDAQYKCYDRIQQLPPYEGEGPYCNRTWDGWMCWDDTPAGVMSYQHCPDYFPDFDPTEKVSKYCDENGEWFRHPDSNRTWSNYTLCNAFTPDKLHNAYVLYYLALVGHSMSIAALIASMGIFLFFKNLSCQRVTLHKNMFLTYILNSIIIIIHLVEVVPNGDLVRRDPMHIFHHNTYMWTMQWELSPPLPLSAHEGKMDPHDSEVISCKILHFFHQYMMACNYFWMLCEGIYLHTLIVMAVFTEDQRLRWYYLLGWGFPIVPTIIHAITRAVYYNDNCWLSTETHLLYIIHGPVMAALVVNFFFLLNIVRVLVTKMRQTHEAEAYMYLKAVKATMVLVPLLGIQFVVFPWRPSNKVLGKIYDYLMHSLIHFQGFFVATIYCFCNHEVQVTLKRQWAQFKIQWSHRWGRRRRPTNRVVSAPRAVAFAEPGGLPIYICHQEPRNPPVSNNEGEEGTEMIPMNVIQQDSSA
In words: cAMP production in HEK cells with stable recombinant expression of rat calcitonin receptor (rat CTR). In kind it is cell-based. The settings on record: assay buffer with 0.1% BSA. The method in brief:
(§1)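 Thawed cells in HBSS/0.1% BSA/25 mM HEPES pH 7.4 with 0.5 mM IBMX were incubated with peptides 30 min at room temperature; cAMP read by HTRF. EC50 from 4-parameter fit of % activation relative to maximal amylin or calcitonin effect.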

Series [3] deals with T2, human amylin receptor (calcitonin receptor co-expressed with receptor activity modifying protein, RAMP3) (hAMYR3) (Homo sapiens, UniProt O60896+P30988).
T2 construct: expressed in transfected cells
T2 sequence (P30988 25-474): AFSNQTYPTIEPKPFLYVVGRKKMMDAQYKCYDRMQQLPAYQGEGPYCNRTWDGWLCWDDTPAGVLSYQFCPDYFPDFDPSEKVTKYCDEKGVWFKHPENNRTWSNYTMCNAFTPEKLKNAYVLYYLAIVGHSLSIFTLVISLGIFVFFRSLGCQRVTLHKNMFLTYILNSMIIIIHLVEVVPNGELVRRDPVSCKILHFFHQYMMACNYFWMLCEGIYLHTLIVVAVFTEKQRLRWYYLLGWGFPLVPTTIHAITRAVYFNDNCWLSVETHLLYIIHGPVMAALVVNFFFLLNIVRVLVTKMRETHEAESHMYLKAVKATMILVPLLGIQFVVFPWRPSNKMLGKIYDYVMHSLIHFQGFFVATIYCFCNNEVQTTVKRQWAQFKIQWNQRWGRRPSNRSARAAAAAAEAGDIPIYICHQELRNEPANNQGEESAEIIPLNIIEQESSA
T2 sequence (O60896 24-148 partner): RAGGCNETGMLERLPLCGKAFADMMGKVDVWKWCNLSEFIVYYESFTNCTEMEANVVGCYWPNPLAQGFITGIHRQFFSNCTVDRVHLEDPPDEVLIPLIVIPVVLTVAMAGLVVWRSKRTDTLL
Kind of series: cAMP production in 1321N1 cells with stable recombinant expression of human amylin receptor (hAMYR3). In kind it is cell-based. The settings on record: for Ratio (selectivity hAMYR vs hCTR, ratio of EC50 values at the two receptors): EC50 hCTR / EC50 hAMYR3; for EC50: cAMP, 1321N1 cells, assay buffer with 0.1% BSA, read-out: EC50 (pM) hAMYR3. Summed up: as §1
On the technique in general: Cyclic AMP is a second messenger, typically raised through Gs and lowered through Gi signalling.

Series [4] has as its target T3, rat amylin receptor (calcitonin receptor co-expressed with receptor activity modifying protein, RAMP3) (Rat AMYR3) (Rattus norvegicus, UniProt P32214+Q9JJ73).
T3 construct: expressed in transfected cells
T3 sequence (P32214 25-516): T1 sequence (P32214 25-516)
T3 sequence (Q9JJ73 23-147 partner): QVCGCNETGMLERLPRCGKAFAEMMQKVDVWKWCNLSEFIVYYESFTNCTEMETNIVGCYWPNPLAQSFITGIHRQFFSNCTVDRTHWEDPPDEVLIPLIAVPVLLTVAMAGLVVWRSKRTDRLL
Kind of series: cAMP production in HEK cells with stable recombinant expression of rat amylin receptor (Rat AMYR3). In kind it is cell-based. The settings on record: assay buffer with 0.1% BSA. Summed up:
as §1

Series [5] has as its target T4, human calcitonin receptor (hCTR) (Homo sapiens, UniProt P30988).
T4 construct: expressed in transfected cells
T4 sequence (P30988 25-474): T2 sequence (P30988 25-474)
Kind of series: cAMP production in 1321N1 cells with stable recombinant expression of human calcitonin receptor (hCTR). Conditions: cAMP, 1321N1 cells, assay buffer with 0.1% BSA; read-out: EC50 (pM) hCTR. The format is cell-based. The method in brief:
as §1

Series [6] concerns lean rats. In words: Rat acute food intake study. The format is in vivo. Conditions: lean male Sprague Dawley rats, 20 nmol/kg subcutaneously. Summed up:
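Male Sprague Dawley rats (n=7/group), fasted 6 h, received 20 nmol/kg test compound or 60 nmol/kg pramlintide subcutaneously 30 min before food return at dark onset. Food intake recorded automatically in home cages over 3 days, binned hourly and analysed as cumulative dark-period intake; body weight taken daily.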

For series [7] the following is noted: Roth et al. Br J Pharmacol 2012; cited from earlier work.

In the case of `CC[C@H](C)[C@H](NC(=O)[C@@H]1CCCN1C(=O)CNC(=O)[C@H](Cc1ccccc1)NC(=O)[C@H](CC(N)=O)NC(=O)[C@H](CC(N)=O)NC(=O)[C@H](CO)NC(=O)[C@H](CO)NC(=O)[C@H](Cc1c[nH]cn1)NC(=O)C(C)(C)NC(=O)[C@H](CC(C)C)NC(=O)[C@H](Cc1ccccc1)NC(=O)[C@H](CC(N)=O)NC(=O)[C@H](C)NC(=O)[C@H](CC(C)C)NC(=O)[C@H](CCCNC(=N)N)NC(=O)[C@H](CCC(N)=O)NC(=O)[C@@H](NC(=O)[C@H](C)NC(=O)[C@@H]1CSSC[C@H](NC(=O)[C@H](CCCCN)NC(=O)[C@@H](N)CCCCNC(=O)CC[C@H](NC(=O)CCCCCCCCCCCCCCCCC(=O)O)C(=O)O)C(=O)N[C@@H](CC(N)=O)C(=O)N[C@@H]([C@@H](C)O)C(=O)N[C@@H](C)C(=O)N[C@@H]([C@@H](C)O)C(=O)N1)[C@@H](C)O)C(=O)N[C@@H](CC(C)C)C(=O)N1CCC[C@H]1C(=O)N1CCC[C@H]1C(=O)N[C@H](C(=O)N[C@@H](CCC(=O)O)C(=O)N[C@H](C(=O)NCC(=O)N[C@@H](CO)C(=O)N[C@@H](CC(N)=O)C(=O)N[C@H](C(=O)N[C@@H](Cc1ccc(O)cc1)C(N)=O)[C@@H](C)O)C(C)C)[C@@H](C)O` [Peptide 140] (H-K([γGlu-C18 diacid])KCNTATCATQRLANFL[Aib]HSSNNFGPILPPTEVGSNTY-NH2; disulfide 3-8; N-terminus assumed), the results for the half-life in series [1] (iv) and in series [1] (sc) were 10.6 h and 12.9 h, respectively. Also, the half-maximal effective concentration (EC50) in series [2] came out at 1220 pM; in series [3], 656 pM; in series [4] it was 19.5 pM; in series [5], 6050 pM. Besides, the “Ratio (selectivity hAMYR vs hCTR, ratio of EC50 values at the two receptors)” value in series [3] came to 9.2. Besides, the “Cummulative food intake (% vehicle treated intake) At 12 h” value in series [6] amounted to 62.4 % vehicle treated intake. In addition, the “Cummulative food intake (% vehicle treated intake) At 24 h” value in series [6] is on record as 54.4 % vehicle treated intake. The “Cummulative food intake (% vehicle treated intake) At 48 h” value in series [6] amounted to 56.5 % vehicle treated intake.

On to `CC[C@H](C)[C@H](NC(=O)[C@@H]1CCCN1C(=O)CNC(=O)[C@H](Cc1ccccc1)NC(=O)[C@H](CC(N)=O)NC(=O)[C@H](CC(N)=O)NC(=O)[C@H](CO)NC(=O)[C@H](CO)NC(=O)[C@H](Cc1c[nH]cn1)NC(=O)C(C)(C)NC(=O)[C@H](CC(C)C)NC(=O)[C@H](Cc1ccccc1)NC(=O)[C@H](CC(N)=O)NC(=O)[C@H](C)NC(=O)[C@H](CC(C)C)NC(=O)[C@H](CCCNC(=N)N)NC(=O)[C@H](CCC(N)=O)NC(=O)[C@@H](NC(=O)[C@H](C)NC(=O)[C@@H]1CSSC[C@H](NC(=O)[C@@H](N)CCCCNC(=O)CC[C@H](NC(=O)CCCCCCCCCCCCCCCCC(=O)O)C(=O)O)C(=O)N[C@@H](CC(N)=O)C(=O)N[C@@H]([C@@H](C)O)C(=O)N[C@@H](C)C(=O)N[C@@H]([C@@H](C)O)C(=O)N1)[C@@H](C)O)C(=O)N[C@@H](CC(C)C)C(=O)N1CCC[C@H]1C(=O)N1CCC[C@H]1C(=O)N[C@H](C(=O)N[C@@H](CC(N)=O)C(=O)N[C@H](C(=O)NCC(=O)N[C@@H](CO)C(=O)N[C@@H](CC(N)=O)C(=O)N[C@H](C(=O)N[C@@H](Cc1ccc(O)cc1)C(N)=O)[C@@H](C)O)C(C)C)[C@@H](C)O` [Peptide 149] (H-K([γGlu-C18 diacid])CNTATCATQRLANFL[Aib]HSSNNFGPILPPTNVGSNTY-NH2; disulfide 2-7; N-terminus assumed), for which the half-life in series [1] (iv) is 6.9 h; in series [1] (sc) it was 9.3 h. Besides, the EC50 in series [2] stood at 522 pM; in series [3] it was 130 pM; in series [4] it was 5.6 pM; in series [5], 1200 pM. Moreover, the “Ratio (selectivity hAMYR vs hCTR, ratio of EC50 values at the two receptors)” value in series [3] stood at 9.2. The “Cummulative food intake (% vehicle treated intake) At 12 h” value in series [6] was found to be 31 % vehicle treated intake. For the same molecule, the “Cummulative food intake (% vehicle treated intake) At 24 h” value in series [6] was 31.8 % vehicle treated intake. Further, in series [6], the “Cummulative food intake (% vehicle treated intake) At 48 h” value worked out at 17.5 % vehicle treated intake.

Consider “amylin (KCNTATCATQRLANFLVHSSNNFGAILSSTNVGSNTY; not fully specified (C-terminus, bridges); cysteine pairing not given here; UniProt P10997 34-70, looked up) [native amylin, of which pramlintide is a synthetic analogue with three proline substitutions]”, for which the “terminal half-life in rats” value in series [7] was “around 13 minutes”.
